Data taken from US11370785B2, “Multicyclic compounds as farnesoid X receptor modulators” (BRISTOL-MYERS SQUIBB COMPANY, priority 2017, dated 2022).

The compounds below were run against T1, human FXR (Homo sapiens, UniProt Q96RI1) (assay: transient human FXR/Gal4-luciferase reporter assay). Conditions: Gal4-hFXR reporter in HEK293 cells; relative to 8 μM GW-4064; read-out: FXR EC50.
T1 construct: expressed in transfected cells; host or cells: HEK293 cells stably carrying a 5xGal4-response-element firefly luciferase reporter, transiently transfected with the pcDNA3.1-Gal4-FXR plasmid
T1 sequence (Q96RI1 262-486 limits assumed): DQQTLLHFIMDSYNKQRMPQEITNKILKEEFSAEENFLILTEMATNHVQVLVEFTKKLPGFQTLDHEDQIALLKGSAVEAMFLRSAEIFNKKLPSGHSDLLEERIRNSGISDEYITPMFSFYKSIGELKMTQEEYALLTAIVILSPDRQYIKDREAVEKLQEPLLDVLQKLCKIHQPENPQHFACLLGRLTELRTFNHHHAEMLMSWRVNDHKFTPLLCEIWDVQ
Type: cell-based
Procedure, shortened: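 HEK293 cells stably carrying a 5×Gal4-response-element firefly luciferase reporter, transiently transfected with a CMV-driven Gal4 DNA-binding domain–human FXR ligand-binding domain fusion, were treated overnight at 37 °C with serially diluted compounds. Luminescence was read by Steady-Glo; DMSO background was subtracted and signal expressed as percent of the 8 μM GW-4064 response.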
Compound `CCOc1cc(C(N)=O)ncc1N1CCC2(CC1)CC(Cc1c(-c3ccccc3C(F)(F)F)noc1C1CC1)C2` [Example 144] has an EC50 of 327 nM. `O=C(O[C@@H]1O[C@H](C(=O)O)[C@@H](O)[C@H](O)[C@H]1O)c1cc(C(F)(F)F)c2cc(N3CCC4(CC3)CC(Cc3c(-c5ccccc5C(F)(F)F)noc3C3CC3)C4)ccc2n1` [Example 145, (2S,3S,4S,5R,6S)-6-((6-(2-((5-Cyclopropyl-3-(2-(trifluoromethyl)phenyl)isoxazol-4-yl)methyl)-7-azaspiro[3.5]nonan-7-yl)-4-(trifluoromethyl)quinoline-2-carbonyl)oxy)-3,4,5-trihydroxytetrahydro-2H-pyran-2-carboxylic acid] was tested, and the EC50 was 36 nM. `CCOc1cc(C(N)=O)ncc1N1CCC2(CC1)CC(=Cc1c(-c3c(Cl)cncc3Cl)noc1C1CC1)C2` [Example 146] gave an EC50 of 112 nM. `CC(O)Cc1cc(C(=O)O)nc2ccc(N3CCC4(CC3)CC(Cc3c(-c5ccccc5C(F)(F)F)noc3C3CC3)C4)cc12` (centres unmarked) [Example 147] showed an EC50 of 160 nM. Work on `O=C(O)c1cc(OCC(F)F)c2cc(N3CCC4(CC3)CC(=Cc3c(-c5ccccc5C(F)(F)F)noc3C3CC3)C4)ccc2n1` [Example 148] yielded an EC50 of 4 nM. `O=C(O)c1cc(OCC(F)F)c2cc(N3CCC4(CC3)CC(Cc3c(-c5ccccc5C(F)(F)F)noc3C3CC3)C4)ccc2n1` [Example 149] gave an EC50 of 6 nM. `O=C(O)c1cc(F)c2nc(N3CCC4(CC3)CC(=Cc3c(-c5c(Cl)cncc5Cl)noc3C(F)(F)F)C4)sc2c1` [Example 150] showed an EC50 of 110 nM. `O=C(O)c1cc(OC2CCOC2)c2cc(N3CCC4(CC3)CC(Cc3c(-c5ccccc5C(F)(F)F)noc3C3CC3)C4)ccc2n1` (centres unmarked) [Example 151] was tested, and the EC50 was 12 nM. `O=C(O)c1cc(O[C@H]2CCOC2)c2cc(N3CCC4(CC3)CC(Cc3c(-c5ccccc5C(F)(F)F)noc3C3CC3)C4)ccc2n1` [Example 152] gave an EC50 of 6 nM. `O=C(O)c1cc(C(F)(F)F)c2cc(N3CCC4(CC3)CC(=Cc3c(-c5c(Cl)cncc5Cl)noc3C(F)(F)F)C4)ccc2n1` [Example 153] showed an EC50 of 26 nM. With `O=C(O)c1cc(CO)c2cc(N3CCC4(CC3)CC(Cc3c(-c5ccccc5C(F)(F)F)noc3C3CC3)C4)ccc2n1` [Example 154] the EC50 was 326 nM. Work on `COCc1onc(-c2c(Cl)cncc2Cl)c1C=C1CC2(CCN(c3nc4c(F)cc(C(=O)O)cc4s3)CC2)C1` [Example 155] yielded an EC50 of 120 nM. In the case of `O=C(O)c1ncc(N2CCC3(CC2)CC(Cc2c(-c4ccccc4C(F)(F)F)noc2C2CC2)C3)cc1C(F)(F)F` [Example 156], the EC50 is reported as 1670 nM. `O=C(O)c1ncc(N2CCC3(CC2)CC(=Cc2c(-c4ccccc4C(F)(F)F)noc2C2CC2)C3)cc1C(F)(F)F` [Example 157] gave an EC50 of 2470 nM. `COCc1onc(-c2c(Cl)cncc2Cl)c1C=C1CC2(CCN(c3ccc4nc(C(=O)O)cc(C(F)(F)F)c4c3)CC2)C1` [Example 158] gave an EC50 of 33 nM. In the case of `C=Cc1cncc(Cl)c1-c1noc(C2CC2)c1C=C1CC2(CCN(c3nc4c(F)cc(C(=O)O)cc4s3)CC2)C1` [Example 159], the EC50 is reported as 350 nM. With `C=Cc1cncc(Cl)c1-c1noc(C2CC2)c1C=C1CC2(CCN(c3ccc4nc(C(=O)O)cc(C(F)(F)F)c4c3)CC2)C1` [Example 160] the EC50 was 37 nM. For `COc1cc(C(=O)O)nc2ccc(N3CCC4(CC3)CC(=Cc3c(-c5c(Cl)cncc5Cl)noc3C(F)(F)F)C4)cc12` [Example 161], the EC50 was 27 nM. For `COCCOc1cc(C(=O)O)nc2ccc(N3CCC4(CC3)CC(=Cc3c(-c5c(Cl)cncc5Cl)noc3C(F)(F)F)C4)cc12` [Example 162], the EC50 was 37 nM. `O=C(O)c1cc(C(F)(F)F)cc(N2CCC3(CC2)CC(Cc2c(-c4ccccc4C(F)(F)F)noc2C2CC2)C3)n1` [Example 163] gave an EC50 of 1270 nM. With `O=C(O)c1cc(OC2CCC2)c2cc(N3CCC4(CC3)CC(=Cc3c(-c5c(Cl)cncc5Cl)noc3C(F)(F)F)C4)ccc2n1` [Example 164] the EC50 was 11 nM. For `C=Cc1cncc(C=C)c1-c1noc(C2CC2)c1C=C1CC2(CCN(c3nc4c(F)cc(C(=O)O)cc4s3)CC2)C1` [Example 165], the EC50 was 1700 nM. With `CCc1cncc(Cl)c1-c1noc(C2CC2)c1C=C1CC2(CCN(c3ccc4nc(C(=O)O)cc(C(F)(F)F)c4c3)CC2)C1` [Example 166] the EC50 was 30 nM.
